We go through one molecule from patent US20200223839A1, “FLUORO-CONTAINING COMPOUNDS, USE AND PREPARATION THEREOF” (JIANGSU YINGKEBEITA YIYAOKEJI CO. LTD, priority 2017, published 2020).

One assay deals with CaKi-1. Briefly: Cytotoxicity assay by the CTG method, CaKi-1. In kind it is cell-based. The following applies: Homo sapiens, CaKi-1, Kidney cancer, 72 h. Here is the method: (§1) The corresponding cells were harvested from flask into cell culture medium and the cell number were counted. The cells were diluted with culture medium to the desired density and 40 μL of cell suspension was added into each well of 384-well cell culture plate as designated. The plates were covered with lid and placed in room temperature for 30 minutes without shaking and then were transferred plates into 37° C. 5% CO2 incubator overnight for cell attachment.
(§2) Compound preparation and treatment: Test compounds were received or dissolved at 30 mM stock solution and control compound Staurosporine was stored as 10 mM and 1 mM concentration. 45 uL of stock solution was transferred to a 384 pp-plate. 3 fold, 10-point dilution were performed via transferring 15 uL compound into 30 μL DMSO by using TECAN (EVO200) liquid handler. The plates were spun at room temperature at 1,000 RPM for 1 minute and shaken at a plate shaker for 2 minutes. […]
(§3) The plate from incubators were placed and equilibrated at room temperature for 15 minutes. […] 40 μL of CellTiter-Glo reagent were transferred into each well to be detected (at 1:1 to culture medium). Then the plates were placed at room temperature for 30 min followed by reading on EnSpire.
(§4) The inhibition activity was calculated following the formula below: […]
(§5) The IC50 were calculated by fitting the Curve using Xlfit (v5.3.1.3): […]

The next assay deals with NCI-H446. The experiment in a line: Cytotoxicity assay by the CTG method, NCI-H446. The following applies: Homo sapiens, NCI-H446, Lung cancer, 72 h. In kind it is cell-based. Here is the method: as §1, §2, §3, §4, §5
A further assay relates to SK-MEL-3. Briefly: Cytotoxicity assay by the CTG method, SK-MEL-3. The format is cell-based. The following applies: Homo sapiens, SK-MEL3, SK-MEL-3, Melanoma, 72 h. Here is the method: as §1, §2, §3, §4, §5
Assay [1] has as its system MDA-MB-453 cells (human breast cancer). Briefly: In vivo mouse model, MDA-MB-453, tumor sizes. The following applies: MDA-MB-453 mouse model, similar dosage (for example, 100 mg/Kg), FIG. 6. From the text:
MDA-MB-453 cells (human breast cancer) were also studied in a mouse model. […] FIG. 7.

Each structure is given as a SMILES string.

One may read the IC50 as the point on the concentration scale where inhibition reaches its midpoint. As to `Cc1ccc(S(=O)(=O)Nc2nc3ccccc3nc2Nc2ccc3nsnc3c2)cc1F` [Compound 4f, N-[3-(benzo[1,2,5]thiadiazol-5-ylamino)-quinoxalin-2-yl]-3-fluoro-4-methyl-benzenesulfonamide], the IC50 in the assay with CaKi-1 is 13 µM; in the assay with NCI-H446, 3.92 µM; in the assay with SK-MEL-3, 9.06 µM. Moreover, the “anticancer activities (tumor sizes) compared with Ref. 2” value in assay [1] is listed as “better anticancer activities than Ref. 2”.
